{"source": "patent US20050026296A1", "about": "“Diagnostic method based on lipid measuring parameter modulations/effector quotient profiles” (priority 2001, published 2005)", "test_system": "leukocytes from the peripheral blood", "assay": "Release of prostaglandin E2 (PGE2) and peptide leukotrienes (pLT) from leukocytes after modulation, quantified by EIA", "format": "cell-based, human", "settings": "for PGE2 (lipid measurement parameter A) in cell culture supernatant / pLT (lipid measurement parameter B) in cell culture supernatant: 100,000 cells/ml, 37° C., 30 minutes; for Standardized effector quotient (PGE/pLT) / Standardized modulation quotient PGE2 / Standardized modulation quotient pLT: divided by quotient of standard group", "method": "Human leukocytes of the peripheral blood are separated from plasma with the aid of a dextran gradient, and adjusted to a defined cell count (100,000 cells/ml). Subsequently, the stimulation is effected by incubation of the cells, e.g. without or while adding arachidonic acid as modulating indicator substance, or anti-IgE as modulating effector for a defined time (30 minutes) at 37° C. in cell culture medium (e.g. RPMI 1640). After sedimentation of the cells by centrifugation for 5 minutes with 800×g at 4° C., the cell-free supernatant is collected and can be stored at −80° C. under nitrogen or argon, if desired. Afterwards, these measurement samples are transferred to a polystyrol plate coated with prostaglandin E2 or peptide leukotrienes, respectively, and incubated for 18 hours at 4° C. while adding an anti-prostaglandin-E2- or anti-peptide-leukotriene-antibody, respectively, (“competitive assay”). After a washing step, an incubation at 23° C. for 2 hours is performed with a biotinylated secondary antibody against the first antibody. After further washing, incubation follows with a streptavidin-conjugated peroxidase at 23° C. for 1 hour, and after further washing, a peroxidase substrate is added and the optical density is determined after about 30 minutes with a multichannel photometer. With the aid of the standard curves carried along, the measurement values can now be quantified and used for calculating the lipid measurement parameter stimulation/effector quotient profiles (an example for the calculation is given herein below).\n1) Leukocytes from the peripheral blood of investigation group 1/standard group/investigation group 2 are obtained by blood withdrawal, followed by density gradient separation (3% dextran solution) for separating plasma and leukocytes. The leukocytes thus obtained are washed 3 times with phosphate buffered solution (PBS) and pooled/resuspended in cell culture medium ([…]), before they are adjusted to a cell count of 100,000 cells/ml (investigation group 2 only in this example; in principle, a second group is not necessary for this test, but serves here for a better understanding and as second comparison group, both to the standard group and to the investigation group).\n2) The cells are divided into 3 equal parts (e.g. 3 times with 1 ml cell suspension with 100,000 cells/ml each) in reaction vessels (e.g. plastic or glass vessels).\nA control solution is added to the first part-sample (=without further modulator, =zero or blank value; control solution is the solvent, in which the modulators are dissolved).\nArachidonic acid is added to the second part-sample (concentration: 10^−5 M; =indicator substance).\nAn anti-immunoglobulin-E solution is added to the third part-sample (e.g. 1:100 dilution of the anti-human-IgE-solution from DAKO, =modulator or modulating substance).\nExposition/incubation with the indicator substance arachidonic acid and the modulator anti-immunoglobulin-E-solution is started simultaneously at e.g. 37° C. for e.g. 30 minutes.\nThereafter, the cells are separated from the cell culture medium, e.g. by centrifugation at 4° C. with a sedimentation force of e.g. 800×g. The supernatant obtained from the 3 part-samples, separated for each part-sample, is then collected in suitable vessels (e.g. cryovessels) and stored until EIA analysis at e.g. −70° C.\n3) The contents of prostaglandin E2 (PGE2) and peptide leukotrienes (pLT9) in the cell culture supernatants of the 3 part-samples are analysed and quantified by enzyme immunological assays (EIA) specific for PGE2 (=lipid measurement parameter A) and pLT (=lipid measurement parameter B), respectively."}
{"smiles": "CCCCC/C=C\\C/C=C\\C/C=C\\C/C=C\\CCCC(=O)O", "note": "[arachidonic acid]", "values": [{"measurement": "PGE2 (lipid measurement parameter A) in cell culture supernatant", "setting": "Investigation group 1 (I1)", "result": "4120 ± 236", "unit": "pg/mL"}, {"measurement": "pLT (lipid measurement parameter B) in cell culture supernatant", "setting": "Investigation group 1 (I1)", "result": "150±10.4", "unit": "pg/ml"}, {"measurement": "Effector quotient (PGE/pLT)", "setting": "Investigation group 1 (i1)", "result": 27.5}, {"measurement": "Modulation quotient PGE2 (modulated value / zero value A0)", "setting": "Investigation group 1 (i1)", "result": 11.8}, {"measurement": "Modulation quotient pLT (modulated value / zero value B0)", "setting": "Investigation group 1 (i1)", "result": 1.3}, {"measurement": "Standardized effector quotient (PGE/pLT)", "setting": "Investigation group 1 (i1)", "result": 0.941}, {"measurement": "Standardized modulation quotient PGE2", "setting": "Investigation group 1 (i1)", "result": 5.1}, {"measurement": "Standardized modulation quotient pLT", "setting": "Investigation group 1 (i1)", "result": 0.21}, {"measurement": "PGE2 (lipid measurement parameter A) in cell culture supernatant", "setting": "Investigation group 2 (I2)", "result": "3976 ± 245", "unit": "pg/mL"}, {"measurement": "pLT (lipid measurement parameter B) in cell culture supernatant", "setting": "Investigation group 2 (I2)", "result": "128 ± 10.4", "unit": "pg/ml"}, {"measurement": "Effector quotient (PGE/pLT)", "setting": "Investigation group 2 (i2)", "result": 31.1}, {"measurement": "Modulation quotient PGE2 (modulated value / zero value A0)", "setting": "Investigation group 2 (i2)", "result": 1.8}, {"measurement": "Modulation quotient pLT (modulated value / zero value B0)", "setting": "Investigation group 2 (i2)", "result": 2.4}, {"measurement": "Standardized effector quotient (PGE/pLT)", "setting": "Investigation group 2 (i2)", "result": 1.065}, {"measurement": "Standardized modulation quotient PGE2", "setting": "Investigation group 2 (i2)", "result": 0.78}, {"measurement": "Standardized modulation quotient pLT", "setting": "Investigation group 2 (i2)", "result": 0.38}, {"measurement": "PGE2 (lipid measurement parameter A) in cell culture supernatant", "setting": "Standard group (N)", "result": "4170 ± 275", "unit": "pg/mL"}, {"measurement": "pLT (lipid measurement parameter B) in cell culture supernatant", "setting": "Standard group (N)", "result": "143 ± 12.4", "unit": "pg/ml"}, {"measurement": "Effector quotient (PGE/pLT)", "setting": "Standard group (n)", "result": 29.2}, {"measurement": "Modulation quotient PGE2 (modulated value / zero value A0)", "setting": "Standard group (n)", "result": 2.3}, {"measurement": "Modulation quotient pLT (modulated value / zero value B0)", "setting": "Standard group (n)", "result": 6.2}, {"measurement": "Standardized effector quotient (PGE/pLT)", "setting": "Standard group (n)", "result": "1 (0.9-1.1)"}, {"measurement": "Standardized modulation quotient PGE2", "setting": "Standard group (n)", "result": "1 (0.8-1.2)"}, {"measurement": "Standardized modulation quotient pLT", "setting": "Standard group (n)", "result": "1 (0.5-1.2)"}, {"measurement": "induced synthesis of prostaglandin E2 compared with persons without pathological findings", "setting": "analgesic intolerance", "result": "unstriking"}, {"measurement": "elevation of induced synthesis of peptide leukotriene compared with persons without pathological findings", "setting": "analgesic intolerance, unstriking to faintly elevated", "result": "0-40%"}]}
